Experimental data: paper PMC6327987, “Synthesis and biological evaluation of novel N^9-heterobivalent β-carbolines as angiogenesis inhibitors” (Journal of Enzyme Inhibition and Medicinal Chemistry, 2019)
Where two headings read alike, the source gives them in different places.

Legend:
HepG2 = experiment: MTT cytotoxicity, liver carcinoma cells; type: cell-based; settings: MTT assay, liver carcinoma HepG2, mean ± SD of at least three determinations
Experimental: (§1) Target compounds were assayed by the MTT method for cytotoxic activity, as described previously. The panel of cell lines included gastric carcinoma (BGC-823), liver carcinoma (HepG2), breast carcinoma (MCF-7), colon carcinoma (HT-29), esophageal carcinoma (Eca-109), and Lewis lung carcinoma (LLC). Growth inhibition rates were calculated with the following equitation: Inhibition ratio (%)= ODcompd−ODblank/ODDMSO−ODblank×100% . Half maximal inhibitory concentration (IC50) of each compound was calculated using software Graph-Pad Prism (version 6.0).
(§2) All the 24 novel synthesized N^9-heterobivalent β-carbolines (5a-x) were screened for their in vitro cytotoxic activities against six different cancer cell lines, namely BGC-823 (gastric carcinoma), HepG2 (liver carcinoma), MCF-7 (breast carcinoma), HT-29 (colon carcinoma), Eca-109 (esophageal carcinoma) and LLC (Lewis lung carcinoma). The IC50 values were the average of at least three independent experiments.

MCF-7 = experiment: MTT cytotoxicity, breast carcinoma cells; type: cell-based; settings: MTT assay, breast carcinoma MCF-7, mean ± SD of at least three determinations
Experimental: as §1, §2

LLC = experiment: MTT cytotoxicity, Lewis lung carcinoma cells; type: cell-based; settings: MTT assay, mean ± SD of at least three determinations
Experimental: as §1, §2

Eca-109 = experiment: MTT cytotoxicity, esophageal carcinoma cells; type: cell-based; settings: esophageal carcinoma Eca-109, mean ± SD of at least three determinations
Experimental: as §1, §2

HT-29 = experiment: MTT cytotoxicity, colon carcinoma cells; type: cell-based; settings: MTT assay, colon carcinoma HT-29, mean ± SD of at least three determinations
Experimental: as §1, §2

BGC-823 = experiment: MTT cytotoxicity, gastric carcinoma cells; type: cell-based; settings: MTT assay, gastric carcinoma BGC-823, mean ± SD of at least three determinations
Experimental: as §1, §2

[1] = Homo sapiens, ECa-109, MTT assay

Structure (SMILES)	IC50 (HepG2; Homo sapiens)	IC50 (MCF-7; Homo sapiens, MCF7)	melting point	IC50 (LLC; Lewis lung carcinoma)	IC50 (Eca-109; [1])	IC50 (HT-29; Homo sapiens)	IC50 (BGC-823; Homo sapiens)	IC50 (HepG2)	IC50 (MCF-7; read-out: IC50 (μM) ±SD MCF7)	IC50 (LLC)	IC50 (Eca-109; MTT assay)	IC50 (HT-29)	IC50 (BGC-823)
Cc1nccc2c3ccccc3n(CCCCCCn3c4ccccc4c4ccnc(-c5cccs5)c43)c12 [Compound 5h, 1–(2-thienyl)-9–(6-(1-methyl-β-carboline-9-yl)hexyl)-β-carboline]	> 100 µM	75.9 ± 9.4 µM	238.5 to 239.6 °C	30.2 ± 1.5 µM	30.2 ± 3.4 µM	47.8 ± 6.5 µM	> 100 µM						
COc1ccc(-c2nccc3c4ccccc4n(CCCCn4c5ccccc5c5ccnc(-c6cccs6)c54)c23)cc1 [Compound 5o, 1–(4-methoxyphenyl)-9–(4-(1–(2-thienyl)-β-carboline-9-yl)butyl)-β-carboline]	> 100 µM	> 100 µM	232.5 to 233.3 °C	96.8 ± 9.8 µM	> 100 µM	> 100 µM	> 100 µM						
c1cncc(-c2nccc3c4ccccc4n(CCCCn4c5ccccc5c5ccncc54)c23)c1 [Compound 5a, 1–(3-pyridyl)-9–(4-(β-carboline-9-yl)butyl)-β-carboline]	39.1 ± 5.4 µM	> 100 µM	173.3 to 175.1 °C	> 100 µM	> 100 µM	> 100 µM	> 100 µM						
Clc1ccccc1-c1nccc2c3ccccc3n(CCCCn3c4ccccc4c4ccnc(-c5cccs5)c43)c12 [Compound 5r, 1–(2-chlorophenyl)-9–(4-(1–(2-thienyl)-β-carboline-9-yl)butyl)-β-carboline]	> 100 µM	60.7 ± 4.8 µM	225.4 to 227.2 °C	> 100 µM	96.7 ± 11.9 µM	96.2 ± 5.1 µM	> 100 µM						
N.N.[Cl][Pt][Cl] [Cisplatin, reference compound]								14.8 ± 0.4 µM	12.4 ± 0.7 µM	7.6 ± 0.4 µM	8.9 ± 0.6 µM	26.8 ± 1.4 µM	11.6 ± 0.7 µM
COc1ccc2c3ccnc(C)c3n(CCCCCn3c4ccccc4c4ccnc(-c5cccnc5)c43)c2c1 [Compound 5v, 7-methoxy-1-methyl-9–(5-(1–(3-pyridyl)-β-carboline-9-yl)pentyl)-β-carboline]	31.1 ± 3.4 µM	18.7 ± 0.5 µM	183.6 to 184.9 °C	11.8 ± 1.8 µM	13.2 ± 3.6 µM	13.5 ± 2.2 µM	23.2 ± 1.5 µM						
COc1ccc2c3ccnc(C)c3n(CCCCn3c4ccccc4c4ccnc(-c5cccnc5)c43)c2c1 [Compound 5u, 7-methoxy-1-methyl-9–(4-(1–(3-pyridyl)-β-carboline-9-yl)butyl)-β-carboline]	26.8 ± 2.8 µM	23.9 ± 0.7 µM	163.8 to 164.5 °C	12.2 ± 2.3 µM	25.2 ± 5.5 µM	15.1 ± 3.1 µM	39.1 ± 2.4 µM						
Clc1ccccc1-c1nccc2c3ccccc3n(CCCCn3c4ccccc4c4ccnc(-c5cccnc5)c43)c12 [Compound 5n, 1–(2-chlorophenyl)-9–(4-(1–(3-pyridyl)-β-carboline-9-yl)butyl)-β-carboline]	> 100 µM	86.9 ± 15.3 µM	177.6 to 178.9 °C	> 100 µM	> 100 µM	72.2 ± 5.2 µM	> 100 µM						
Cc1nccc2c3ccccc3n(CCCCCn3c4ccccc4c4ccnc(-c5ccccc5Cl)c43)c12 [Compound 5j, 1–(2-chlorophenyl)-9–(5-(1-methyl-β-carboline-9-yl)pentyl)-β-carboline]	> 100 µM	46.8 ± 3.7 µM	169.1 to 171.2 °C	< 20 µM	< 20 µM	24.1 ± 2.2 µM	> 100 µM			16.6 ± 3.1 µM	18.6 ± 2.1 µM		
COc1ccc(-c2nccc3c4ccccc4n(CCCCn4c5ccccc5c5ccnc(-c6cccnc6)c54)c23)cc1 [Compound 5k, 1–(4-methoxyphenyl)-9–(4-(1–(3-pyridyl)-β-carboline-9-yl)butyl)-β-carboline]	> 100 µM	> 100 µM	241.2 to 242.4 °C	> 100 µM	> 100 µM	> 100 µM	> 100 µM						
COc1ccc(-c2nccc3c4ccccc4n(CCCCn4c5ccccc5c5ccnc(-c6cccnc6)c54)c23)cc1OC [Compound 5l, 1–(3,4-dimethoxyphenyl)-9–(4-(1–(3-pyridyl)-β-carboline-9-yl)butyl)-β-carboline]	79.5 ± 12.3 µM	> 100 µM	239.8 to 240.5 °C	46.8 ± 6.4 µM	93.2 ± 7.1 µM	91.1 ± 10.6 µM	> 100 µM						
COc1cc(-c2nccc3c4ccccc4n(CCCCn4c5ccccc5c5ccnc(-c6cccs6)c54)c23)cc(OC)c1OC [Compound 5q, 1–(3,4,5-trimethoxyphenyl)-9–(4-(1–(2-thienyl)-β-carboline-9-yl)butyl)-β-carboline]	> 100 µM	> 100 µM	226.5 to 227.8 °C	> 100 µM	> 100 µM	> 100 µM	> 100 µM						
Cc1nccc2c3ccccc3n(CCCCCCn3c4ccccc4c4ccnc(-c5cccnc5)c43)c12 [Compound 5d, 1–(3-pyridyl)-9–(6-(1-methyl-β-carboline-9-yl)hexyl)-β-carboline]	> 100 µM	> 100 µM	141.3 to 142.9 °C	< 20 µM	< 20 µM	> 100 µM	> 100 µM			14.5 ± 0.9 µM	18.9 ± 3.1 µM		
COc1cc(-c2nccc3c4ccccc4n(CCCCn4c5ccccc5c5ccnc(-c6cccnc6)c54)c23)cc(OC)c1OC [Compound 5m, 1–(3,4,5-trimethoxyphenyl)-9–(4-(1–(3-pyridyl)-β-carboline-9-yl)butyl)-β-carboline]	85.1 ± 11.6 µM	> 100 µM	231 to 232.3 °C	> 100 µM	70.9 ± 8.4 µM	> 100 µM	> 100 µM						
COc1ccc2c3ccnc(C)c3n(CCCCCn3c4ccccc4c4ccnc(-c5cccs5)c43)c2c1 [Compound 5x, 7-methoxy-1-methyl-9–(5-(1–(2-thienyl)-β-carboline-9-yl)pentyl)-β-carboline]	> 100 µM	41.6 ± 5.3 µM	196.1 to 197.4 °C	12.2 ± 3.7 µM	46.7 ± 6.9 µM	> 100 µM	> 100 µM						
COc1ccc2c3ccnc(C)c3n(CCCCn3c4ccccc4c4ccnc(C)c43)c2c1 [Compound 5s, 7-methoxy-1-methyl-9–(4-(1-methyl-β-carboline-9-yl)butyl)-β-carboline]	37.6 ± 5.8 µM	36.4 ± 2.1 µM	188.7 to 189.4 °C	6.2 ± 0.6 µM	11.3 ± 2.7 µM	11.1 ± 0.8 µM	17.9 ± 1.1 µM						
Cc1nccc2c3ccccc3n(CCCCn3c4ccccc4c4ccnc(-c5cccs5)c43)c12 [Compound 5f, 1–(2-thienyl)-9–(4-(1-methyl-β-carboline-9-yl)butyl)-β-carboline]	> 100 µM	46.6 ± 4.8 µM	214.8 to 216 °C		64.1 ± 7.6 µM	56.1 ± 4.2 µM	38.8 ± 2.9 µM						
